In patent publication US5371102A, “Compositions and methods of inhibiting thyroid activity” (priority 1993, dated 1994):
Entries after “also recorded” stand apart in the source; their conditions may differ.

Columns and labels:
TPX [1] = biological target: T1, TPX (Sus scrofa, UniProt P09933); test: TPX inactivation; assay type: biochemical, hog
T1 sequence (P09933 15-926): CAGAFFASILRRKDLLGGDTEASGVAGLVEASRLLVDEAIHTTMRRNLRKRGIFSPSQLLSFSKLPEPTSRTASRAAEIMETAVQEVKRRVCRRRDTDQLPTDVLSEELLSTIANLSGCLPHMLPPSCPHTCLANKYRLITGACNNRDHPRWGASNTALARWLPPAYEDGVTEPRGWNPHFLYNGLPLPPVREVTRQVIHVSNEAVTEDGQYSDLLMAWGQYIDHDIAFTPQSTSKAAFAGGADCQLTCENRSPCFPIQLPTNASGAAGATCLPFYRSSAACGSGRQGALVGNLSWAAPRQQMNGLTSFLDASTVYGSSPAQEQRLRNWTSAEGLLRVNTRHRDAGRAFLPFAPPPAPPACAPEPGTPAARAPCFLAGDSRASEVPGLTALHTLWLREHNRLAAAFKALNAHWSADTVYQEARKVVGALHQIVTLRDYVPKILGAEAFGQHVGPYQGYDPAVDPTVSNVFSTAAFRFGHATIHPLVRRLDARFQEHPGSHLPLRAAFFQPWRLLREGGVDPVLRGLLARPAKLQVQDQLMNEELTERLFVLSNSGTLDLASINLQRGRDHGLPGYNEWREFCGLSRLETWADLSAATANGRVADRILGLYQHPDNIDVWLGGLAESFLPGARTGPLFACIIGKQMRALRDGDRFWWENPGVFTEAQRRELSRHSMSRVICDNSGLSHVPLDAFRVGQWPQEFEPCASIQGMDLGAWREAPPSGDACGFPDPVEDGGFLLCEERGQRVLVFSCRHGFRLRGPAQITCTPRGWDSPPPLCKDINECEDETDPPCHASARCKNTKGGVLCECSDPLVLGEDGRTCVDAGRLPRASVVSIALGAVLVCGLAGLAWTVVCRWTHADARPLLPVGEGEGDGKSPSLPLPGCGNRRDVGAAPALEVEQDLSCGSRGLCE
From the text: Materials used in the examples below were obtained from the following sources. Bovine LPX, bovine liver catalase, glucose oxidase, 30% hydrogen peroxide, glucose, guaiacol, ABTS and deuterium oxide were purchased from Sigma Chemical Company. Selenium dioxide, MBI ^13 CH3 I and PBA were purchased from Aldrich Chemical Company and PBA was purified as previously described by Fieset et al., Reagents for Organic Synthesis, Vol. I, pp.135-139, John Wiley and Sons, N.Y. (1967). LPX purity was checked by PAGE, as described by Doerge, D.R., et al. in, Biochem. Pharmacol., Vol.36, pp.972-974 (1986). TPX was purified from hog thyroids obtained from a local slaughterhouse by published procedures. Doerge & Takazowa, Chemical Research in Toxicology, Vol. 3, pp. 98-101 (1990). TPX purity was determined by LC and its concentration determined spectophotometrically. Hydroperoxide concentrations were determined by iodometric titration, as described by Kolthoff, et al., in "Quantitative Chemical Analysis", Macmillan, London, pp.842-860 (1969). MMBI, and BI were synthesized by published procedures as described by Doerge, D.R., Biochem, Vol. 27, pp. 3697-3700 (1988) and were recrystallized from aqueous ethanol. MeBI was purified by distillation and DMeBI^+ was synthesized and purified by recrystallization from ethyl acetate/methanol. 1-^13 C-MMBI was synthesized from ^13 CH3 I according to the procedure disclosed by Doerge, D.R., in, J. Lab. Comp. and Radiopharm., Vol.25, pp.985-990 (1988). PPHP and PPA were prepared, purified and analyzed as previously described by Doerge, Biochem, Vol.27, p.11 (1988). The methyl ester of 1-methyl-benzimidazole-2-sulfinic acid was prepared by addition of hydrogen peroxide (5 equivalents of a 10 M solution) to MMBI (0.1 M) in methanol. The products, MeBI and the ester, were obtained following preparative TLC on silica (Uniplate, Analtech Co., Newark, DL) using 5% methanol/chloroform as eluant.
DMMBI was synthesized according to a published method. Duffin et al., J. Chem. Soc., Part II, pp.364-365 (1956). Samples including TPX, H2 O2, and I^- were incubated with and without DMMBI. Triiodide formation was observed spectrophotometrically with respect to time.

LPX = biological target: T2, LPX (Bos taurus, UniProt P80025); test: LPX-catalyzed oxidation of guaiacol or ABTS; assay type: biochemical, bovine; details: LPX plus hydrogen peroxide
T2 construct: purchased Sigma Chemical Company
From the text: (§1) Materials used in the examples below were obtained from the following sources. Bovine LPX, bovine liver catalase, glucose oxidase, 30% hydrogen peroxide, glucose, guaiacol, ABTS and deuterium oxide were purchased from Sigma Chemical Company. Selenium dioxide, MBI ^13 CH3 I and PBA were purchased from Aldrich Chemical Company and PBA was purified as previously described by Fieset et al., Reagents for Organic Synthesis, Vol. I, pp.135-139, John Wiley and Sons, N.Y. (1967). LPX purity was checked by PAGE, as described by Doerge, D.R., et al. in, Biochem. Pharmacol., Vol.36, pp.972-974 (1986). TPX was purified from hog thyroids obtained from a local slaughterhouse by published procedures. Doerge & Takazowa, Chemical Research in Toxicology, Vol. 3, pp. 98-101 (1990). TPX purity was determined by LC and its concentration determined spectophotometrically. Hydroperoxide concentrations were determined by iodometric titration, as described by Kolthoff, et al., in "Quantitative Chemical Analysis", Macmillan, London, pp.842-860 (1969). […] PPHP and PPA were prepared, purified and analyzed as previously described by Doerge, Biochem, Vol.27, p.11 (1988). […]
Inhibition of LPX activity by thiones was determined from the kinetics of iodide ion, guaiacol or ABTS oxidation assays conducted at 25° C. Kinetic parameters of suicide inactivation were determined as previously described. […]

TPX [2] = biological target: T1, TPX; test: TPX/hydrogen peroxide-catalyzed oxidation of ABTS and guaiacol; assay type: biochemical, hog
From the text: as §1, with “(1969). MMBI, and BI were synthesized by published procedures as described by Doerge, D.R., Biochem, Vol. 27, pp. 3697-3700 (1988) and were recrystallized from aqueous ethanol.” for “(1969).”

LPX and TPX = test: suicide inhibition of peroxidases (summary statements); assay type: biochemical
[3] = reaction of DMMBI with preformed triiodide; details: triiodide formed by H2O2, LPX and iodide ion
From the text: When triiodide ion was formed by addition of hydrogen peroxide to LPX and iodide ion, addition of DMMBI caused rapid quenching of triiodide (ca. 1 sec) and DMeBI^+ was the sole product. Triiodide produced by addition of […] to aqueous iodide ion reacted identically with DMMBI.

Cn1c(=S)n(C)c2ccccc21 [DMMBI, 1,3-dimethylbenzimidazole-2-thione]
TPX inactivation (TPX [1]; 100 μM, 1 minute incubation): does not inactivate TPX | TPX inactivation (TPX [1]; presence of hydrogen peroxide): does not inactivate LPX or TPX | effect on rate of enzymatic oxidation of guaiacol or ABTS (LPX): did not reduce the rate of enzymatic oxidation; also recorded: does not affect LPX or TPX/hydrogen peroxide-catalyzed oxidation of the substrates ABTS and guaiacol | effect on oxidation of ABTS and guaiacol (TPX [2]): does not affect LPX or TPX/hydrogen peroxide-catalyzed oxidation of the substrates ABTS and guaiacol | selectivity for iodide ion oxidation (LPX and TPX; alternate substrate mechanism): block only reactions involving iodide ion oxidation | suicide inhibition (LPX and TPX; summary of own examples): not suicide inhibitors | time of triiodide quenching [3]: ca. 1 sec
